Data reported in ChEMBL document CHEMBL1137959, “Two new bacterial DNA primase inhibitors from the plant Polygonum cuspidatum” (Bioorg Med Chem Lett, 2004).

Tests used:
Nucleic Acid [1] = assay: Inhibitory activity against bacterial DNA primase in fluorescent intercalator dye displacement assay (FID); format: nucleic-acid assay, Escherichia coli
Nucleic Acid [2] = assay: Inhibitory activity against bacterial DNA primase; format: nucleic-acid assay, Escherichia coli

Row | IC50 (Nucleic Acid [1]) [µM] | IC50 (Nucleic Acid [2]) [µM] | Compound
1 | 4 | 4 | O=C(O[C@@H]1[C@@H](Oc2cc(O)cc(/C=C/c3ccc(O)cc3)c2)O[C@@H](CO)[C@@H](O)[C@@H]1O)c1cc(O)c(O)c(O)c1
2 | – | 5 | O=C(OC[C@@H]1O[C@H](Oc2cc(O)cc(/C=C/c3ccc(O)cc3)c2)[C@@H](O)[C@@H](O)[C@@H]1O)c1cc(O)c(O)c(O)c1
